# Measured values reported in US10150737B2, “Compounds for controlling arthropods” (priority 2013, dated 2018).
# How the values were obtained:
# [1] = logP determination by HPLC on a reversed-phase column (C18); type: physicochemical; conditions: for logP^a): HPLC-MS method a); for log P: HPLC-MS
# Ctenocephalides felis [2] = test: Ctenocephalides felis - in vitro contact tests with adult cat fleas; type: in vivo; conditions: application rate 5 μg/cm2 (=500 g/ha); after 48 h; fleas dead or moribund
# Experimental: For the coating of the test tubes, 9 mg of active ingredient are first dissolved in 1 ml of acetone p.a. and then diluted to the desired concentration with acetone p.a. 250 μl of the solution are distributed homogeneously on the inner walls and base of a 25 ml test tube by turning and rocking on an orbital shaker (rocking rotation at 30 rpm for 2 h). With 900 ppm active ingredient solution and internal surface area 44.7 cm^2, given homogeneous distribution, an area-based dose of 5 μg/cm^2 is achieved.
# After the solvent has evaporated off, the tubes are populated with 5-10 adult cat fleas (Ctenocephalides felis), sealed with a perforated plastic lid and incubated in a horizontal position at room temperature and ambient humidity. After 48 h, efficacy is determined. To this end, the test tubes are stood upright and the fleas are knocked to the base of the tube. Fleas which remain motionless at the base or move in an uncoordinated manner are considered to be dead or moribund.
# 100% efficacy means that all the fleas were dead or moribund. 0% efficacy means that no fleas were harmed.
# Boophilus microplus = Boophilus microplus - injection test; type: in vivo; conditions: application rate 20 μg/animal; injection into engorged adult female ticks; after 7 days
# Method in brief: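 Five engorged adult female cattle ticks each received a 1 μl abdominal injection of compound solution in dimethyl sulphoxide. Fertile egg laying was assessed at 7 days, with doubtful eggs incubated about 42 days until hatch. 0% efficacy means all eggs fertile.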
# Ctenocephalides felis [3] = test: Ctenocephalides felis - oral test; type: in vivo; conditions: application rate 100 ppm in citrated cattle blood; after 2 days
# Method in brief: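 Roughly 20 unfed adult C. felis imbibe compound-dosed citrated cattle blood (DMSO formulation) across parafilm from a cylinder above their gauze chamber; percentage mortality recorded at day 2.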
# Myzus persicae = Myzus persicae - spray test; type: in vivo; conditions: Chinese cabbage leaf discs, after 6 days
# Experimental: Solvent: 78 parts by weight of acetone and 1.5 parts by weight of dimethylformamide
# Emulsifier: alkylaryl polyglycol ether
# To produce an appropriate active ingredient formulation, 1 part by weight of active ingredient is dissolved using the specified parts by weight of solvent and made up with water containing an emulsifier concentration of 1000 ppm until the desired concentration is attained. To produce further test concentrations, the preparation is diluted with emulsifier-containing water.
# Discs of Chinese cabbage leaves (Brassica pekinensis) infested by all stages of the green peach aphid (Myzus persicae) are sprayed with an active ingredient formulation of the desired concentration.
# After 6 days, efficacy in % is determined. 100% means that all the aphids have been killed; 0% means that none of the aphids have been killed.
# Phaedon cochleariae = Phaedon cochleariae - spray test; type: in vivo; conditions: larvae on Chinese cabbage leaf discs, after 7 days
# Method in brief: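 Mortality of mustard beetle larvae was scored as % at day 7 on Brassica pekinensis leaf discs. Discs had been treated by spraying at the desired concentration, using an acetone/dimethylformamide solution diluted in water with 1000 ppm alkylaryl polyglycol ether, and dried before larvae were added.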
# Musca domestica = Musca domestica test; type: in vivo; conditions: application rate 100 ppm; adult houseflies; after 2 days
# Experimental: Solvent: dimethyl sulphoxide
# To produce an appropriate active ingredient formulation, 10 mg of active ingredient are mixed with 0.5 ml of dimethyl sulphoxide, and the concentrate is diluted with water to the desired concentration.
# Vessels containing a sponge treated with sugar solution and the active ingredient formulation of the desired concentration are populated with 10 adult houseflies (Musca domestica).
# After 2 days, the kill in % is determined. 100% means that all of the flies have been killed; 0% means that none of the flies have been killed.
# Tetranychus urticae = Tetranychus urticae - spray test, OP-resistant; type: in vivo; conditions: bean leaf discs, after 6 days
# Method in brief: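 Mortality (%) read on day 6 after spraying Phaseolus vulgaris leaf discs carrying all mite stages with formulations at the desired concentration. Formulation: active ingredient in acetone plus dimethylformamide, made up with emulsifier-containing water (1000 ppm alkylaryl polyglycol ether).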
# Lucilia cuprina = Lucilia cuprina test; type: in vivo; conditions: application rate 100 ppm; L1 larvae; after 2 days
# Method in brief: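 Mortality (%) of first-instar blowfly larvae, about 20 per vessel, recorded 2 days after exposure to compound-treated minced horsemeat. Compound dissolved in dimethyl sulphoxide, then water-diluted to the desired concentration.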
# Spodoptera frugiperda = Spodoptera frugiperda - spray test; type: in vivo; conditions: caterpillars on maize leaf discs, after 7 days
# Method in brief: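 Percent mortality of Spodoptera frugiperda caterpillars scored 7 days after placing them on dried maize leaf discs sprayed at the desired concentration. Spray formulation: compound dissolved in acetone/dimethylformamide, made up with water containing 1000 ppm emulsifier.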
# [4] = reversed-phase column (C18), Table I-T3
SMILES,logP^a) ([1]; reversed-phase column (C18)),"log P [1, 4]",efficacy (Ctenocephalides felis [2]) [%],efficacy (laying of fertile eggs) (Boophilus microplus) [%],efficacy (kill) (Ctenocephalides felis [3]) [%],efficacy (Myzus persicae; application rate 100 g/ha) [%],efficacy (Phaedon cochleariae; application rate 100 g/ha) [%],efficacy (kill) (Musca domestica) [%],efficacy (Tetranychus urticae; application rate 100 g/ha) [%],logP^a) [1],"logP^a) [1, 4]",efficacy (kill) (Lucilia cuprina) [%],efficacy (Phaedon cochleariae; application rate 500 g/ha) [%],efficacy (Spodoptera frugiperda; application rate 500 g/ha) [%],efficacy (Tetranychus urticae; application rate 500 g/ha) [%],efficacy (Spodoptera frugiperda; application rate 100 g/ha) [%],efficacy (Myzus persicae; application rate 500 g/ha) [%],"logP ([1]; HPLC, C18 reversed phase, acetonitrile/water with formic acid, EEC Directive 79/831 Annex V.A8)"
Cc1ncc(-c2cnn(-c3c(Cl)cc(C(F)(F)F)cc3Cl)c2)cc1C(=O)N(C)C1CC1 [I-T3-128],2.8,2.8,100,100,100,100,100,,,,,,,,,,,
Cc1ncc(-c2cnn(-c3c(Cl)cc(C(F)(F)F)cc3Cl)c2)cc1C(=O)NC1(C#N)CC1 [I-T3-129],2.6,2.6,100,100,100,100,100,80,100,,,,,,,,,
Cc1ncc(-c2cnn(-c3c(Cl)cc(C(F)(F)F)cc3Cl)c2)cc1C(=O)N(C)C1(C#N)CC1 [I-T3-132],2.9,2.9,100,100,100,90,100,,100,,,,,,,,,
CCc1cc(C(F)(C(F)(F)F)C(F)(F)F)cc(C)c1-n1cc(-c2cncc(C(=O)NC3(C#N)CC3)c2)cn1 [I-T3-76],,,,100,100,90,,90,,3.4,3.4,90,100,100,100,,,
O=C(NC1CC1)c1cc(-c2cnn(-c3c(Cl)cc(C(F)(C(F)(F)F)C(F)(F)F)cc3Cl)c2)cnc1NC1CC1 [I-T3-137],3.4,3.4,100,100,100,,100,100,90,,,80,,,,100,,
Cc1cc(C(F)(C(F)(F)F)C(F)(F)F)cc(C)c1-n1cc(-c2cncc(C(=O)NC3(C#N)CC3)c2)cn1 [I-T3-8],,,,100,100,,,100,,3.4,3.4,100,100,100,100,,90,
CCc1cc(C(F)(C(F)(F)F)C(F)(F)F)cc(C)c1-n1cc(-c2cncc(C(=O)NC3CC3)c2)cn1 [I-T3-77],,,,100,100,100,,100,,3.4,3.4,100,100,100,100,,,
N#CC1(NC(=O)c2cc(-c3cc(-c4c(Cl)cc(C(F)(C(F)(F)F)C(F)(F)F)cc4Cl)on3)ccc2Cl)CC1 [I-T23-2],,,100,100,100,,,100,,,,100,100,100,100,,,4.8
CCSc1cc(C(F)(F)F)cc(Cl)c1-n1cc(-c2ccc(Cl)c(C(=O)NC3(C#N)CC3)c2)cn1 [I-T3-170],,3.7,,,,100,100,,100,,,,,,,100,,
O=C(NC1CC1)c1cccc(-c2cnn(-c3ncc(C(F)(F)F)cc3Cl)c2)c1 [I-T3-122],3.0,3.0,,,,,,,,,,,,,,,100,
